According to patent publication US10538561B2, “Peptide for treating inflammatory diseases” (priority 2015, dated 2020):

Assays:
[1] = test system: Cyclobutane Pyrimidine Dimers (CPD); test: UVB damage: cyclobutane pyrimidine dimers (ELISA); assay type: cell-based, human; settings: HaCaT
Experimental: Effect on Cyclobutane Pyrimidine Dimers (CPD); Effect on 8-oxo-G formation: Cell line: HaCaT (human keratinocytes); test items: IS 181; concentration range: 0.1-100 μg/ml (Duplicate wells). Method of estimation: Plating of cells; Sera starvation with 0.1% FBS (24 hours); treatment of cells with test items (24 hours); UVB damage (30 mJ/cm2)+Test items addition (24 hours); Cyclobutane pyrimidine dimers (CPD) and 8-oxo-G estimation using ELISA.

[2] = test system: HaCaT (Human keratinocyte) cell line; test: Mitochondrial membrane potential by JC-1 assay; assay type: cell-based; settings: 20 h
Experimental: (§1) For testing Apoptosis the Human Keratinocytes (HaCaT) cell line has been employed. The growth conditions are DMEM containing 1% FBS. […] Test concentration range is IS181 is tested at the highest (Qualitative analysis) effective concentrations selected on the basis of Quantitative JC-1 assay. The method of estimation is Mitochondrial membrane depolarization by JC-1 assay (Early apoptosis), LDH enzyme release (Necrosis). Treatment regimen & time points are JC-1 assay—Single addition, 20 h; LDH assay—Single addition, 24 h; Positive control: Triton-X-100, Doxorubicin-hydrochloride
Quantitative effect on Δψm (Red fluorescence/Green fluorescence) in HaCaT cells post 20 hours of treatment. […] Evaluation (Qualitative and quantitative) of differential JC-1 staining in treated cells after 20 h on incubation with the test peptides.

TNF-α = TNF-α level in TNF-α stimulated HaCaT; assay type: cell-based, Human; settings: 24 h
Experimental: (§2) Effect on pro-inflammatory cytokines against TNF-α/LPS+PMA stimulation: TNF-α; IFN-γ; TARC; TSLP; IL-6; IL-8: Cell lines: Human keratinocytes (HaCaT); test item (TI); IS181; experimental steps: pre-treatment of cells with TI for 2 hours; stimulation with TNF-α: 20 ng/ml; stimulation with LPS+PMA-10 μg/ml LPS+40 ng/ml PMA; supernatant collection for cytokine analysis after 24 hours; concentration range: 0.1 μg/ml-100 μg/ml (duplicate wells); cytokines: TNF-α; IFN-γ; TARC; TSLP; IL-6; IL-8. Method of estimating cytokines: ELISA; positive control: dexamethasone.
(§3) Cell line: HaCaT (Human Keratinocytes); TI Treatment regimen: Pretreatment for 2 h; TI Concentration range: 0.1 μg/ml-100 μg/ml (duplicate wells); TNF-α stimulation: 20 ng/ml; LPS+PMA stimulation: 10 μg/ml LPS+40 ng/ml PMA; Time point for supernatants collection: 24 h; Method of estimation: ELISA; Positive control: Dexamethasone

[3] = test system: Human endothelial cells (EA.hy 926); test: Tube formation in endothelial cells; assay type: cell-based; set-up: endothelial morphogenesis on matrigel: dose or concentration left out as unconfirmed; settings: Ea.hy.926, 8 hours
Experimental: Cell lines: Human endothelial cells (EA.Hy 926); test item: IS 181; treatment regimen; multiple additions (2)—48 hours; concentration range: 100 6 g/ml to 5000 6 g/ml (Duplicate wells); sera condition: medium containing 1% FBS. Non-cytotoxic concentrations of IS 181 were determined using MTT assay. EA.hy926 cells were plated on ECMatrix solution. Cells were treated with IS 181 for 8 hours. Endothelial tubes were visualized under inverted light microscope at 40× magnification and images were captured. End point: visual pattern recognition and scoring of photomicrographs (FIGS. 11A-11G) based on Table-11 below: […]

[4] = test system: HaCaT (Human keratinocyte); test: LDH enzyme release assay; assay type: cell-based
Experimental: as §1
End-point: Percentage increase in LDH activity in treated cells with respect to untreated.

VEGF = VEGF inhibition in keratinocytes (ELISA); assay type: cell-based, Human; set-up: inhibition of VEGF secretion as compared to untreated (basal) levels: dose or concentration left out as unconfirmed; settings: HaCaT; for % Inhibition of VEGF wrt untreated (basal) levels / Conc. of VEGF: 24 h
Experimental: Cell lines: Human Keratinocytes (HaCaT); test item: IS181; treatment regimen: single addition—24 hours; concentration range: 0.1 μg/ml-100 μg/ml. […] Cells were serum-starved for another 24 hours (0% FBS). Cells were treated with IS181 for 24 hours. Supernatants were collected and stored at −20° C. till analysed. Levels of VEGF were analysed in supernatants by ELISA. Percent inhibition of VEGF secretion was calculated with reference to untreated levels. Positive control: curcumin; retinoic acid (at non-cytotoxic concentrations).

IL-6 = test: LPS+PMA stimulated IL-6 secretion in HaCaT; assay type: cell-based, Human; settings: 24 h
Experimental: as §2, §3

## H-WVQRVVEKFLK-OH [IS181, H-Trp-Val-Gln-Arg-Val-Val-Glu-Lys-Phe-Leu-Lys-OH]
[1]; UVB 30 mJ/cm2, 10 μg/ml
  decrease in CPD: 28%
[1]; UVB 30 mJ/cm2, 100 μg/ml
  decrease in CPD: 26%
[2]; 400 μg/ml
  Green fluorescence intensity (RFU): 13.67 ± 1.89 RFU
  Red fluorescence intensity (RFU): 134.33 ± 32.06 RFU
  Red fluorescence intensity/Green fluorescence intensity: 9.83
[2]; 475 μg/ml
  Green fluorescence intensity (RFU): 14.83 ± 3.54 RFU
  Red fluorescence intensity (RFU): 150.67 ± 11.31 RFU
  Red fluorescence intensity/Green fluorescence intensity: 10.16
[2]; 500 μg/ml
  Green fluorescence intensity (RFU): 14.5 ± 2.12 RFU
  Red fluorescence intensity (RFU): 152.83 ± 31.82 RFU
  Red fluorescence intensity/Green fluorescence intensity: 10.54
[2]; 750 μg/ml
  Green fluorescence intensity (RFU): 17.67 ± 4.24 RFU
  Red fluorescence intensity (RFU): 126.17 ± 6.36 RFU
  Red fluorescence intensity/Green fluorescence intensity: 7.14
[2]; 750 μg/ml to 2 mg/ml
  decrease in mitochondrial membrane potential (R/G ratio) as compared to untreated cells: 34% to 88.6%
[2]; 1000 μg/ml
  Green fluorescence intensity (RFU): ^#25.83 ± 5.42^ RFU
  Red fluorescence intensity (RFU): ^#102.25 ± 4.60 ^ RFU
  Red fluorescence intensity/Green fluorescence intensity: 3.96
[2]; 2000 μg/ml
  Green fluorescence intensity (RFU): #41.25 ± 15.20 RFU
  Red fluorescence intensity (RFU): ^#50.58 ± 0.12^ RFU
  Red fluorescence intensity/Green fluorescence intensity: **1.23
TNF-α; 0.1 μg/ml
  TNF-α % decrease with respect to TNF-α: −7.5%
  TNF-α Conc: 22731.8 pg/mL
TNF-α; 1 μg/ml
  TNF-α % decrease with respect to TNF-α: 5.8%
  TNF-α Conc: 19924.1 pg/mL
TNF-α; 5 μg/ml
  TNF-α % decrease with respect to TNF-α: −8.1%
  TNF-α Conc: 22852.1 pg/mL
TNF-α; 10 μg/ml
  TNF-α % decrease with respect to TNF-α: −15.7%
  TNF-α Conc: 24469.9 pg/mL
TNF-α; 100 μg/ml
  TNF-α % decrease with respect to TNF-α: −18.8%
  TNF-α Conc: 25125.0 pg/mL
[3]
  endothelial morphogenesis on matrigel: Complete inhibition
[3]; 1 6 g/ml to 1000 6 g/m/1
  endothelial tube formation: block endothelial tube formation
[4]; 750 μg/ml to 2 mg/ml
  increase in LDH enzyme activity with respect to untreated: ≥ 90%
[4]; 24 h, 400 μg/ml
  % Increase with respect to untreated (LDH): 26.03%
  LDH Activity (mU/ml): 79.73 mU/ml
[4]; 24 h, 475 μg/ml
  % Increase with respect to untreated (LDH): ***49.73%
  LDH Activity (mU/ml): 94.71 mU/ml
[4]; 24 h, 500 μg/ml
  % Increase with respect to untreated (LDH): **34.76%
  LDH Activity (mU/ml): 85.25 mU/ml
[4]; 24 h, 750 μg/ml
  % Increase with respect to untreated (LDH): ***90.43%
  LDH Activity (mU/ml): 120.47 mU/ml
[4]; 24 h, 1000 μg/ml
  % Increase with respect to untreated (LDH): ***116.28%
  LDH Activity (mU/ml): 136.82 mU/ml
[4]; 24 h, 2000 μg/ml
  % Increase with respect to untreated (LDH): ***119.09%
  LDH Activity (mU/ml): 138.60 mU/ml
[4]; 24 h, concentrations around IC50 value
  increase in LDH enzyme release with respect to untreated: > 50%
VEGF
  inhibition of VEGF secretion as compared to untreated (basal) levels: 11.1%-17%
VEGF; 0.1 μg/ml
  % Inhibition of VEGF wrt untreated (basal) levels: 17.0%
  Conc. of VEGF: 2982.4 pg/mL
VEGF; 1 μg/ml
  % Inhibition of VEGF wrt untreated (basal) levels: 12.6%
  Conc. of VEGF: 3139.7 pg/mL
VEGF; 5 μg/ml
  % Inhibition of VEGF wrt untreated (basal) levels: 11.1%
  Conc. of VEGF: 3193.5 pg/mL
VEGF; 10 μg/ml
  % Inhibition of VEGF wrt untreated (basal) levels: 12.9%
  Conc. of VEGF: 3128.2 pg/mL
VEGF; 100 μg/ml
  % Inhibition of VEGF wrt untreated (basal) levels: 0.7%
  Conc. of VEGF: 3565.8 pg/mL
IL-6; 0.1 μg/ml
  IL-6 % decrease with respect to LPS + PMA: −58.3%
  IL-6 Conc: 23.7 pg/mL
IL-6; 1 μg/ml
  IL-6 % decrease with respect to LPS + PMA: −78.5%
  IL-6 Conc: 26.7 pg/mL
IL-6; 5 μg/ml
  IL-6 % decrease with respect to LPS + PMA: −56.5%
  IL-6 Conc: 23.4 pg/mL
IL-6; 10 μg/ml
  IL-6 % decrease with respect to LPS + PMA: −48.0%
  IL-6 Conc: 22.1 pg/mL
IL-6; 100 μg/ml
  IL-6 % decrease with respect to LPS + PMA: −160.6%
  IL-6 Conc: 39.0 pg/mL
